Measured values from patent US20170190671A1, “BIS(ARYL)CATECHOL DERIVATIVES AS HERBICIDES” (E I DU PONT DE NEMOURS AND COMPANY, priority 2014, published 2017).

Columns and labels:
Assay in all cases: Test D preemergence
Type in all cases: in vivo
Details in all cases: scale 0 to 100
[1] = tested on: Russian thistle (Salsola kali)
From the text: (§1) Seeds of plant species selected from bluegrass (annual bluegrass, Poa annua), blackgrass (Alopecurus myosuroides), canarygrass (Phalaris minor), chickweed (common chickweed, Stellaria media), cutleaf geranium (Geranium dissectum), galium (catchweed bedstraw, Galium aparine), downy bromegrass (Bromus tectorum), field poppy (Papaver rhoeas), field violet (Viola arvensis), green foxtail (Setaria viridis), deadnettle (henbit deadnettle, Lamium amplexicaule), Italian ryegrass (Lolium multiflorum), kochia (Kochia scoparia), lambsquarters (Chenopodium album), oilseed rape (Brassica napus), pigweed (Amaranthus retroflexus), chamomile (scentless chamomile, Matricaria inodora), Russian thistle (Salsola kali), speedwell (bird's-eye speedwell, Veronica persica), spring barley (Hordeum vulgare), spring wheat (Triticum aestivum), wild buckwheat (Polygonum convolvulus), wild mustard (Sinapis arvensis), wild oat (Avenafatua), wild radish (Raphanus raphanistrum), windgrass (Apera spica-venti), winter barley (Hordeum vulgare), and winter wheat (Triticum aestivum) were planted into a silt loam soil and treated preemergence with test chemicals formulated in a non-phytotoxic solvent mixture which included a surfactant.
(§2) At the same time, these species were planted in pots containing Redi-Earth® planting medium (Scotts Company, 14111 Scottslawn Road, Marysville, Ohio 43041) comprising spaghnum peat moss, vermiculite, wetting agent and starter nutrients and treated with postemergence applications of the test chemicals formulated in the same manner. Plants ranged in height from 2 to 18 cm (1- to 4-leaf stage). Treated plants and controls were maintained in a controlled growth environment for 14 to 21 days after which time all species were compared to controls and visually evaluated. Plant response ratings, summarized in Table D, are based on a scale of 0 to 100 where 0 is no effect and 100 is complete control. A dash (-) response means no test result.

[2] = tested on: bluegrass (annual bluegrass, Poa annua)
From the text: as §1, §2

[3] = tested on: chickweed (common chickweed, Stellaria media)
From the text: as §1, §2

[4] = tested on: cutleaf geranium (Geranium dissectum)
From the text: as §1, §2

[5] = tested on: downy bromegrass (Bromus tectorum)
From the text: as §1, §2

[6] = tested on: field poppy (Papaver rhoeas)
From the text: as §1, §2

[7] = tested on: field violet (Viola arvensis)
From the text: as §1, §2

[8] = tested on: green foxtail (Setaria viridis)
From the text: as §1, §2

[9] = tested on: lambsquarters (Chenopodium album)
From the text: as §1, §2

[10] = tested on: oilseed rape (Brassica napus)
From the text: as §1, §2

[11] = tested on: pigweed (Amaranthus retroflexus)
From the text: as §1, §2

[12] = tested on: spring barley (Hordeum vulgare)
From the text: as §1, §2

[13] = tested on: wild buckwheat (Polygonum convolvulus)
From the text: as §1, §2

[14] = tested on: windgrass (Apera spica-venti)
From the text: as §1, §2

[15] = tested on: winter barley (Hordeum vulgare)
From the text: as §1, §2

Fc1cnc(Oc2c(F)cccc2Oc2ncc(Cl)cn2)nc1 [Compound 23]
Plant response rating, Russian Thistle ([1]; 16 g ai/ha): 0 | Plant response rating, Russian Thistle ([1]; 31 g ai/ha): 0 | Plant response rating, Russian Thistle ([1]; 62 g ai/ha): 5 | Plant response rating, Russian Thistle ([1]; 125 g ai/ha): 5 | Plant response rating, Bluegrass ([2]; 16 g ai/ha): 20 | Plant response rating, Bluegrass ([2]; 31 g ai/ha): 65 | Plant response rating, Bluegrass ([2]; 62 g ai/ha): 80 | Plant response rating, Bluegrass ([2]; 125 g ai/ha): 100 | Plant response rating, Chickweed ([3]; 16 g ai/ha): 50 | Plant response rating, Chickweed ([3]; 31 g ai/ha): 100 | Plant response rating, Chickweed ([3]; 62 g ai/ha): 100 | Plant response rating, Chickweed ([3]; 125 g ai/ha): 100 | Plant response rating, Geranium, Cutleaf ([4]; 16 g ai/ha): 25 | Plant response rating, Geranium, Cutleaf ([4]; 31 g ai/ha): 100 | Plant response rating, Geranium, Cutleaf ([4]; 62 g ai/ha): 100 | Plant response rating, Geranium, Cutleaf ([4]; 125 g ai/ha): 100 | Plant response rating, Bromegrass, Downy ([5]; 16 g ai/ha): 5 | Plant response rating, Bromegrass, Downy ([5]; 31 g ai/ha): 25 | Plant response rating, Bromegrass, Downy ([5]; 62 g ai/ha): 35 | Plant response rating, Bromegrass, Downy ([5]; 125 g ai/ha): 70 | Plant response rating, Field Poppy ([6]; 16 g ai/ha): 65 | Plant response rating, Field Poppy ([6]; 31 g ai/ha): 80 | Plant response rating, Field Poppy ([6]; 62 g ai/ha): 90 | Plant response rating, Field Poppy ([6]; 125 g ai/ha): 98 | Plant response rating, Field Violet ([7]; 16 g ai/ha): 25 | Plant response rating, Field Violet ([7]; 31 g ai/ha): 25 | Plant response rating, Field Violet ([7]; 62 g ai/ha): 95 | Plant response rating, Field Violet ([7]; 125 g ai/ha): 100 | Plant response rating, Foxtail, Green ([8]; 16 g ai/ha): 0 | Plant response rating, Foxtail, Green ([8]; 31 g ai/ha): 5 | Plant response rating, Foxtail, Green ([8]; 62 g ai/ha): 55 | Plant response rating, Foxtail, Green ([8]; 125 g ai/ha): 100 | Plant response rating, Lambsquarters ([9]; 16 g ai/ha): 25 | Plant response rating, Lambsquarters ([9]; 31 g ai/ha): 100 | Plant response rating, Lambsquarters ([9]; 62 g ai/ha): 100 | Plant response rating, Lambsquarters ([9]; 125 g ai/ha): 100 | Plant response rating, Oilseed Rape ([10]; 16 g ai/ha): 80 | Plant response rating, Oilseed Rape ([10]; 31 g ai/ha): 85 | Plant response rating, Oilseed Rape ([10]; 62 g ai/ha): 98 | Plant response rating, Oilseed Rape ([10]; 125 g ai/ha): 100 | Plant response rating, Pigweed ([11]; 16 g ai/ha): 98 | Plant response rating, Pigweed ([11]; 31 g ai/ha): 100 | Plant response rating, Pigweed ([11]; 62 g ai/ha): 100 | Plant response rating, Pigweed ([11]; 125 g ai/ha): 100 | Plant response rating, Barley, Spring ([12]; 16 g ai/ha): 0 | Plant response rating, Barley, Spring ([12]; 31 g ai/ha): 5 | Plant response rating, Barley, Spring ([12]; 62 g ai/ha): 30 | Plant response rating, Barley, Spring ([12]; 125 g ai/ha): 75 | Plant response rating, Buckwheat, Wild ([13]; 16 g ai/ha): 40 | Plant response rating, Buckwheat, Wild ([13]; 31 g ai/ha): 50 | Plant response rating, Buckwheat, Wild ([13]; 62 g ai/ha): 100 | Plant response rating, Buckwheat, Wild ([13]; 125 g ai/ha): 100 | Plant response rating, Windgrass ([14]; 16 g ai/ha): 20 | Plant response rating, Windgrass ([14]; 31 g ai/ha): 75 | Plant response rating, Windgrass ([14]; 62 g ai/ha): 98 | Plant response rating, Windgrass ([14]; 125 g ai/ha): 100 | Plant response rating, Barley, Winter ([15]; 16 g ai/ha): 0 | Plant response rating, Barley, Winter ([15]; 31 g ai/ha): 0 | Plant response rating, Barley, Winter ([15]; 62 g ai/ha): 30 | Plant response rating, Barley, Winter ([15]; 125 g ai/ha): 70

Fc1cccc(Oc2ncc(C(F)(F)F)cn2)c1Oc1ncc(Cl)cn1 [Compound 42, 5-chloro-2-[2-fluoro-6-[[5-(trifluoromethyl)-2-pyrimidinyl]oxy]phenoxy]pyrimidine]
Plant response rating, Russian Thistle ([1]; 16 g ai/ha): 0 | Plant response rating, Russian Thistle ([1]; 31 g ai/ha): 20 | Plant response rating, Russian Thistle ([1]; 62 g ai/ha): 15 | Plant response rating, Russian Thistle ([1]; 125 g ai/ha): 55 | Plant response rating, Bluegrass ([2]; 16 g ai/ha): 10 | Plant response rating, Bluegrass ([2]; 31 g ai/ha): 0 | Plant response rating, Bluegrass ([2]; 62 g ai/ha): 45 | Plant response rating, Bluegrass ([2]; 125 g ai/ha): 90 | Plant response rating, Chickweed ([3]; 16 g ai/ha): 70 | Plant response rating, Chickweed ([3]; 31 g ai/ha): 100 | Plant response rating, Chickweed ([3]; 62 g ai/ha): 100 | Plant response rating, Chickweed ([3]; 125 g ai/ha): 100 | Plant response rating, Bromegrass, Downy ([5]; 16 g ai/ha): 0 | Plant response rating, Bromegrass, Downy ([5]; 31 g ai/ha): 10 | Plant response rating, Bromegrass, Downy ([5]; 62 g ai/ha): 50 | Plant response rating, Bromegrass, Downy ([5]; 125 g ai/ha): 65 | Plant response rating, Field Violet ([7]; 16 g ai/ha): 25 | Plant response rating, Field Violet ([7]; 31 g ai/ha): 100 | Plant response rating, Field Violet ([7]; 62 g ai/ha): 100 | Plant response rating, Field Violet ([7]; 125 g ai/ha): 100 | Plant response rating, Foxtail, Green ([8]; 16 g ai/ha): 10 | Plant response rating, Foxtail, Green ([8]; 31 g ai/ha): 60 | Plant response rating, Foxtail, Green ([8]; 62 g ai/ha): 100 | Plant response rating, Foxtail, Green ([8]; 125 g ai/ha): 100 | Plant response rating, Lambsquarters ([9]; 16 g ai/ha): 85 | Plant response rating, Lambsquarters ([9]; 31 g ai/ha): 100 | Plant response rating, Lambsquarters ([9]; 62 g ai/ha): 100 | Plant response rating, Lambsquarters ([9]; 125 g ai/ha): 100 | Plant response rating, Oilseed Rape ([10]; 16 g ai/ha): 50 | Plant response rating, Oilseed Rape ([10]; 31 g ai/ha): 70 | Plant response rating, Oilseed Rape ([10]; 62 g ai/ha): 100 | Plant response rating, Oilseed Rape ([10]; 125 g ai/ha): 100 | Plant response rating, Pigweed ([11]; 16 g ai/ha): 100 | Plant response rating, Pigweed ([11]; 31 g ai/ha): 100 | Plant response rating, Pigweed ([11]; 62 g ai/ha): 100 | Plant response rating, Pigweed ([11]; 125 g ai/ha): 100 | Plant response rating, Barley, Spring ([12]; 16 g ai/ha): 0 | Plant response rating, Barley, Spring ([12]; 31 g ai/ha): 35 | Plant response rating, Barley, Spring ([12]; 62 g ai/ha): 15 | Plant response rating, Barley, Spring ([12]; 125 g ai/ha): 65 | Plant response rating, Buckwheat, Wild ([13]; 16 g ai/ha): 0 | Plant response rating, Buckwheat, Wild ([13]; 31 g ai/ha): 0 | Plant response rating, Buckwheat, Wild ([13]; 62 g ai/ha): 100 | Plant response rating, Buckwheat, Wild ([13]; 125 g ai/ha): 100 | Plant response rating, Windgrass ([14]; 16 g ai/ha): 15 | Plant response rating, Windgrass ([14]; 31 g ai/ha): 60 | Plant response rating, Windgrass ([14]; 62 g ai/ha): 90 | Plant response rating, Windgrass ([14]; 125 g ai/ha): 100 | Plant response rating, Barley, Winter ([15]; 16 g ai/ha): 0 | Plant response rating, Barley, Winter ([15]; 31 g ai/ha): 0 | Plant response rating, Barley, Winter ([15]; 62 g ai/ha): 15 | Plant response rating, Barley, Winter ([15]; 125 g ai/ha): 80
